# According to a melting point compilation (Tetko et al.; mined from patent text by program, amines drawn as free bases though some values may be those of a salt):
row,melting point,Compound
1,49 to 50 °C,CCOC(=O)C=C(C)C=CC=O
2,120 to 122 °C,COc1cc(Cl)nnc1NS(=O)(=O)c1ccc(Cl)s1
3,110 to 112 °C,CCCCCCCCCCCC(=O)Oc1ccc(-c2nc(-c3ccc(N(C)C)cc3)c(C)[nH]2)cc1OC
4,55 °C,COC(=O)CCNC(=O)C1CCCN1C(=O)OCc1ccccc1 (configuration not stated)
5,86.3 to 87.8 °C,CCCCCCc1ccc(-c2ncc(C#N)cn2)cc1
6,85 to 86 °C,CC(C)(C)C(=C=CCl)c1ccccc1-c1ccccc1
7,140 to 141 °C,CCOC(=O)c1cc2n(c1)CNc1ccccc1-2
8,163 to 166 °C,O=C1NCCN1C1CCN(CC(O)COc2cccnc2Cl)CC1 (configuration not stated)
9,85.1 to 87.1 °C,COc1c(C)c(C)c(OC)c(CCCCO)c1C
10,232 to 236 °C,O=C1COc2cc(NC(=O)C(=O)N3CCC(OCc4ccccc4)CC3)ccc2N1
11,110 to 111 °C,Cc1nnc(-c2ccc3occ(-c4cccc(OC(F)(F)F)c4)c3c2)o1
12,204 °C,O=C(NO)[C@H]1CN(S(=O)(=O)c2ccc(-c3ccon3)s2)CCN1S(=O)(=O)c1ccc(-c2ccccc2)s1
13,76 to 78 °C,CCCc1c(OCCCCCC(=O)NCCc2cccnc2)ccc(C(C)=O)c1O
14,142 to 144 °C,O=C(O)C(O)N1C(=O)CCN1c1cccc(C(F)(F)F)c1 (configuration not stated)
15,171 to 175 °C,COc1nc2cc([N+](=O)[O-])cc(Br)c2nc1OC
16,120 to 122 °C,CCOC(=O)c1[nH]cc(Cc2cccc(F)c2C)c1-c1ccccc1
17,198 to 200 °C,CCn1c(=O)c(C)cc2cnc(Nc3ccc(N4CCN(C)CC4)cc3)nc21
18,99.1 to 101 °C,C[C@H]1CCCC(C)(C)[C@@H]1[C@H](O)c1ccc2c(c1)CCN(C(N)=O)C2
19,267 to 268 °C,CCCCc1cc(C#N)ncc1C(=O)O
20,299 to 301 °C,O=C1NC(=O)C(=Cc2cc(O)c(O)c(Cl)c2)S1
21,194 to 199 °C,Fc1ccc(Nc2ncnc3cnc(NC4CCCNC4)nc23)cc1Cl (configuration not stated)

row,melting point,Compound
1,200 to 203 °C,CONC(=O)c1cc2c(Sc3ccc(C)cc3)cncc2s1
2,148 to 150 °C,Nc1nc2ccccc2c2c1ncn2CCCCNC(=O)CCc1ccccc1
3,165 to 167 °C,CC(C)Sc1c(-c2ccc(S(C)(=O)=O)cc2)cnn(CC(F)(F)F)c1=O
4,150 to 153 °C,COc1cc(OC)c(C(=O)CCCCCl)cc1NS(=O)(=O)c1ccc(C(F)(F)F)cc1
5,93 to 95 °C,CON(C)C(=O)c1cc(C(F)(F)F)nc2c(C(F)(F)F)cccc12
6,63 to 65 °C,CCC1(O)c2ccccc2C=Cc2ccccc21
7,165 to 166 °C,O=Cc1c(Cl)nc2ccc(Cl)cn12
8,151 to 152 °C,OC(CN1CCC(O)(Cc2ccccc2)CC1)c1ccc(Cl)cc1 (configuration not stated)
9,97 to 98 °C,CC(=O)Nc1ccc(S(=O)(=O)NCCCN2CCOCC2)cc1
10,57 to 58 °C,CCCCCCCCCCCCCCCCCCOc1cc(OCCCBr)cc(C(=O)OCc2ccccc2)c1
11,81 to 82 °C,CCOP(=O)(Cc1ccc(C(=O)N(Cc2ccccc2)c2ccc(Cl)cc2)cc1)OCC
12,176 to 177 °C,N#Cc1ccc2ccc3ccccc3c(=O)c2c1
13,114 to 116 °C,NCCCCNC(=O)N1c2ccccc2C=Cc2ccccc21
14,156 °C,C(=NNc1ccccc1)c1cccnc1
15,209 to 211 °C,CSc1nc2sccc2c2nnc(SCc3ccccc3)n12
16,106 to 107 °C,CCC(O)(CCC(N)=O)c1ccc(Cl)c(Cl)c1 (configuration not stated)
17,123 to 124 °C,CCCC(=O)c1cc2c(OCC)cc(C(=O)OCC)nc2cc1C
18,146 °C,CS(=O)(=O)CS(C)(=O)=O
19,165 to 166 °C,CC(=O)Nc1nc(CSc2ccc([N+](=O)[O-])cc2)cs1
20,165 to 172 °C,CC(=O)N(CC(=O)O)c1ccc(C)cc1C
21,106 to 108 °C,CC(C)(C)C(=O)Oc1ccccc1C(=O)c1ccccc1OC(=O)C(C)(C)C

row,melting point,Compound
1,43 to 47 °C,O=C1C(Br)CCN1c1cc(C(F)(F)F)ccn1 (configuration not stated)
2,178 to 182 °C,COCC1=NC(NC(=O)Nc2cccc(C)c2)C(=O)N(CC(=O)N2CC3CCC(CC3)C2)c2c(C)cccc21 (configuration not stated)
3,178 to 180 °C,O=C(Nc1ccc(Oc2ccc(N3CCC(O)CC3)cc2)cc1)c1ccc(Cl)c(Cl)c1
4,73 to 74 °C,CC(C)Oc1ccc(N(N)C(=O)N(C)C)cc1Cl
5,165 to 167 °C,Cc1cccc(C2=C(c3ccc(S(C)(=O)=O)cc3)CC(CN(C)C)C2O)c1 (configuration not stated)
6,83 to 84.5 °C,O=C(Oc1ccccc1)C(I)=C(I)I
7,61 to 62 °C,C[C@@H]([C@@H]1CCC(=O)O1)N(Cc1ccccc1)Cc1ccccc1
8,104 to 106 °C,CC(Cc1ccc(Oc2cc(N3CCN(Cc4ccccc4)CC3)nc(NCc3ccccc3)n2)cc1)(Oc1ccccc1)C(=O)O (configuration not stated)
9,150 to 153 °C,COC(OC)c1cc(C)nc(NC(=O)NS(=O)(=O)c2ccccc2Cl)n1
10,300 °C,Cc1nc(O)c(C)c(O)n1
11,148 to 150 °C,CC1(C)CC(=O)CC(C)(C)N1SSSSN1C(C)(C)CC(=O)CC1(C)C
12,166 to 167 °C,N#Cc1ccccc1-c1nc2ncccc2o1
13,132 °C,CC(C)Cn1c(=O)n(C)c(=O)c2c(Br)c(C(O)c3cccnc3)sc21 (configuration not stated)
14,145 to 147 °C,O=C1CCC(N2Cc3c(OCc4ccc(CN5CCOc6ccccc65)cc4)cccc3C2=O)C(=O)N1 (configuration not stated)
15,195 to 198 °C,COc1cc(OC)nc(Oc2ccc(N(C)C)nc2C(=O)O)n1
16,197 to 198 °C,O=C(O)c1ccccc1NC1CCOC1=O (configuration not stated)
17,95 to 96 °C,CN(C)Cc1ccc2cc(-c3nnc(CSCCOc4ccccc4)o3)ccc2c1
18,188 °C,Cc1nn(CCc2ccccc2)cc1C(=O)Nc1ccc(N2CCC(N3CCOCC3)CC2)c(C#N)c1
19,273 to 274 °C,Cc1ccc(C(=O)O)c(Nc2ccc3cn[nH]c3c2)n1
20,160 to 162 °C,CC1(C)Cc2cccc(S(N)(=O)=O)c2O1
21,255 to 260 °C,O=c1nc(-c2ccc3c(c2)OCO3)c2cc3c(cc2n1CC1CC1)OCO3

row,melting point,Compound
1,134 to 137 °C,O=C1c2c(OCc3ccccc3)cccc2-c2nn(CCN(CCO)Cc3ccccc3)c3ccc(NCCNCCO)c1c23
2,132 to 133 °C,Cn1c(Cl)cc(=O)n(C2CCCCC2)c1=O
3,104 to 106 °C,CCCc1nn(-c2ccc(C(F)(F)F)cn2)cc1CCCOc1ccc(OC)c(CCC(=O)O)c1
4,102 to 103 °C,CCOP(=O)(Cc1ccccc1NC(=O)C1=Cc2cc(C3CCCCC3)ccc2CC1)OCC
5,115 to 117 °C,CCCN(CCC)C(=O)C(CCC(=O)OC)NC(=O)C(C(=O)OC)=C1SC=CS1 (configuration not stated)
6,33 to 35 °C,CC(C)COC(=O)ON1C(=O)CCC1=O
7,177 to 179 °C,O=C(NC(=O)c1c(F)cccc1F)Nc1cc(Cl)c(OC(F)(F)C(F)Cl)cc1Cl (configuration not stated)
8,78 to 79 °C,CC(=O)OCCCC1Oc2c(C)c(C)c(OC(C)=O)c(C)c2S1 (configuration not stated)
9,117 to 118 °C,CCOc1ccn([C@H]2CS[C@@H](CO)O2)c(=O)n1 (relative stereo)
10,203 to 206 °C,Cn1c(C(F)(F)F)cc(=O)n(-c2ccc3snc(C4OCC5(CO4)CO5)c3c2)c1=O (configuration not stated)
11,106 to 108 °C,Cn1c(CC#N)ccc1C(=O)c1ccccc1
12,201 to 203 °C,CC(=O)Nc1ccc(C2COc3cc(O)c(O)cc3C2)cc1 (configuration not stated)
13,120 to 122 °C,OCc1nc(-c2ccc3c(c2)Nc2ccccc2S3)cs1
14,201 to 202 °C,CN1C(=O)C2(COc3cc4c(cc32)OCCO4)c2c(-c3cc[nH]n3)cccc21 (configuration not stated)
15,202 to 204 °C,Cc1occc1C(=O)Nc1ccc(C(=O)N2Cc3ccccc3Cc3ccccc32)cc1
16,86 to 87 °C,N#CCOc1ccc2occ(CC#N)c2c1
17,66 to 68 °C,CCOC(=O)/C=C/c1cccc(C(=O)c2ccc(C(F)(F)F)cc2)n1
18,33.5 to 34.5 °C,C=CCOC(=O)COc1ccc(CO)cc1
19,134 to 135 °C,COc1ccc(C(=O)C=C2CCCN2)cc1
20,184 to 186 °C,CCOc1ccncc1NS(=O)(=O)c1nc2cc(C)nc(OC)n2n1
21,156 to 160 °C,Cc1cc(C)c2cccc(OCc3c(Cl)ccc(S(=O)(=O)N4CCC[C@H]4C(=O)NCCNC(=O)COc4ccc(C=NN)cc4)c3Cl)c2n1

row,Compound,melting point
1,NC(=O)[C@@H]1COCN1C(=O)CCl,131 to 133 °C
2,CC1C(=C[N+](=O)[O-])Nc2ccc(Cl)cc2C(c2ccccc2F)=[N+]1[O-] (configuration not stated),198 to 200 °C
3,COC1CCC2C3CCC4CC(O)CCC4(C)C3CCC12C (configuration not stated),150 to 152 °C
